In ChEMBL document CHEMBL1201862, “PubChem BioAssay data set” (2004):
Active and inactive are the calls of the source.

Experiments:
[1] = target: T1, Histone-lysine N-methyltransferase NSD2 (Homo sapiens, UniProt O96028); assay type: biochemical
T1 sequence (O96028 whole entry): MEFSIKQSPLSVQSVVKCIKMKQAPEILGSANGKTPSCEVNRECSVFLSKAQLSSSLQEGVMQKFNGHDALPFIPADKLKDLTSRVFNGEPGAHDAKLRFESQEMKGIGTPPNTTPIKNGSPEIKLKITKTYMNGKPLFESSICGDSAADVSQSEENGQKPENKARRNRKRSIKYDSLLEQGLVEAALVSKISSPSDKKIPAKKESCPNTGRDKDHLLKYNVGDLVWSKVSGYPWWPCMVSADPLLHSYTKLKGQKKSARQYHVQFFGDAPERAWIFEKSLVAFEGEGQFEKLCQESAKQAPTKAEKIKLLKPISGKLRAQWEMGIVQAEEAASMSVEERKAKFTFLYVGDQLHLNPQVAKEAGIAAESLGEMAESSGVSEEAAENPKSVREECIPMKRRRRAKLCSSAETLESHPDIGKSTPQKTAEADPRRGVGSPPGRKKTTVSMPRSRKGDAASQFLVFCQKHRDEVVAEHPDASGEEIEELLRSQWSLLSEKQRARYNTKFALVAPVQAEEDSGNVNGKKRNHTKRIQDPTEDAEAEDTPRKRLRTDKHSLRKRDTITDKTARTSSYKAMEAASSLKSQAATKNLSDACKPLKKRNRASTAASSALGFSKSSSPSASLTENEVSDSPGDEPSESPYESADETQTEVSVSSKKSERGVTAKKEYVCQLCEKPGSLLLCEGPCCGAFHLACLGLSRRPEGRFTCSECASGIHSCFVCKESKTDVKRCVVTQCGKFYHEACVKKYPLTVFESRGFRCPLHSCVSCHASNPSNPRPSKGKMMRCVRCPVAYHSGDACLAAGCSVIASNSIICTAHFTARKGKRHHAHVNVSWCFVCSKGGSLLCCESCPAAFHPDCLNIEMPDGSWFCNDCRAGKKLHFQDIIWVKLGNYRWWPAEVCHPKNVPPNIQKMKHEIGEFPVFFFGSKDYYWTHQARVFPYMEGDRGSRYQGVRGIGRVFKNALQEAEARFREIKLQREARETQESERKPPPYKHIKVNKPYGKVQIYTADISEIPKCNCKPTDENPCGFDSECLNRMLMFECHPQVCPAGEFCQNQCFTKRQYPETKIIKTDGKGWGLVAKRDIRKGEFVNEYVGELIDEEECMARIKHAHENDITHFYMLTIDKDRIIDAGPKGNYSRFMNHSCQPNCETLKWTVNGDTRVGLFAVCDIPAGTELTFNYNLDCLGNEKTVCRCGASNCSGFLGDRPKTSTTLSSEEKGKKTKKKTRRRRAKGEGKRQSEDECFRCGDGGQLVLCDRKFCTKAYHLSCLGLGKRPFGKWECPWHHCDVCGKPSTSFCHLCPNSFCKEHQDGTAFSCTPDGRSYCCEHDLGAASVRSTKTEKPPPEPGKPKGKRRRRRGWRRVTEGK

Nonstructural protein 1 = Nonstructural protein 1 (Influenza A virus, UniProt Q194T2); assay type: functional, Influenza A virus (A/California/07/2009(H1N1))
[2] = viability loss in MITF-independent A375 cells – cell-based, CellTiter-Glo luminescence, dry powder, set 2, counter-screen for MITF inhibitor project, dose response (AID 624489); assay type: functional; details: A-375;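 further: actives are compounds lowering A375 viability meaning general cytotoxicity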
[3] = cytotoxicity in MITF-independent A375 cells – cell-based, CellTiter-Glo luminescence, dry powder, set 4, counter-screen for MITF inhibitor project, dose response (AID 624364); assay type: functional; details: A-375;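 further: A375 melanoma cells are MITF independent so this is a counter screen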
[4] = target: T2, Apoptotic protease-activating factor 1 (Homo sapiens, UniProt O14727); assay type: functional
T2 sequence (O14727 whole entry): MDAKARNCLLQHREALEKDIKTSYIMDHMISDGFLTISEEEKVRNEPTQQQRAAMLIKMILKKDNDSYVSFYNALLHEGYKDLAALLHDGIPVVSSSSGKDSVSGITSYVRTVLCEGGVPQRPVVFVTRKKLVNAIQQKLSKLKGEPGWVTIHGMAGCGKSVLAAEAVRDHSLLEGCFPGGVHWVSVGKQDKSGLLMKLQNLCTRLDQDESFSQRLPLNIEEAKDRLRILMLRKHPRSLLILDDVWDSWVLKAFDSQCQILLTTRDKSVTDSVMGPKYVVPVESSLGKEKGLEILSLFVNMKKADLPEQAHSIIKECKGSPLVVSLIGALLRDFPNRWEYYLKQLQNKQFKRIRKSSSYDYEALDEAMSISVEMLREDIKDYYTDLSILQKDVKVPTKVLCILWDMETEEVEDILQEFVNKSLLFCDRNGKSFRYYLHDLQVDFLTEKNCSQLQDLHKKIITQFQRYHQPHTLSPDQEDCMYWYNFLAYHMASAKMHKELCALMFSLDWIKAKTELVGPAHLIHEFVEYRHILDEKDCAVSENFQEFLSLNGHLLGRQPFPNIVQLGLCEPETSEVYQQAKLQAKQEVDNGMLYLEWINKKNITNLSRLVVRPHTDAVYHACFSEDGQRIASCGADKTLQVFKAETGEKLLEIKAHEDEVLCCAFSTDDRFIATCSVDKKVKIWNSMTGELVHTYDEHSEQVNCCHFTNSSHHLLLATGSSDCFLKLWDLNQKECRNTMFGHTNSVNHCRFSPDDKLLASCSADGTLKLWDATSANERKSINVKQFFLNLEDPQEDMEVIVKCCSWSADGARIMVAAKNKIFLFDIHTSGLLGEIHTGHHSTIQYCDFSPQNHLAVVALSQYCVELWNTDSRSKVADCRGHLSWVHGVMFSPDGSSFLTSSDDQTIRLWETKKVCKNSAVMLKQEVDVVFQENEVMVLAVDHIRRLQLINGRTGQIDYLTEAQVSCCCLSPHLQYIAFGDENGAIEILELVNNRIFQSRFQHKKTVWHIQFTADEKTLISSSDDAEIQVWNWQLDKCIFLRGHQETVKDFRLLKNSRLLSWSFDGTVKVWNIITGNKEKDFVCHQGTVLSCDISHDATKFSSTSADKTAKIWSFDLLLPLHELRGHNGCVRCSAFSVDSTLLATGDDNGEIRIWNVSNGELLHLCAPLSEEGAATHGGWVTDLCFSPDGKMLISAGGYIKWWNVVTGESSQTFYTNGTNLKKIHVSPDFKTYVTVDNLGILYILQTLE

[5] = target: T3, Microphthalmia-associated transcription factor (Homo sapiens, UniProt O75030); test: reducers of TRPM1 reporter luminescence, concentration series – cell-based, SK-MEL-5, cherry-picked, set 3, MITF inhibitor project, dose response (AID 493073); assay type: functional;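 further: SK-MEL-5 melanoma cells with luciferase driven by the MITF target TRPM1 promoter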
T3 sequence (O75030 whole entry): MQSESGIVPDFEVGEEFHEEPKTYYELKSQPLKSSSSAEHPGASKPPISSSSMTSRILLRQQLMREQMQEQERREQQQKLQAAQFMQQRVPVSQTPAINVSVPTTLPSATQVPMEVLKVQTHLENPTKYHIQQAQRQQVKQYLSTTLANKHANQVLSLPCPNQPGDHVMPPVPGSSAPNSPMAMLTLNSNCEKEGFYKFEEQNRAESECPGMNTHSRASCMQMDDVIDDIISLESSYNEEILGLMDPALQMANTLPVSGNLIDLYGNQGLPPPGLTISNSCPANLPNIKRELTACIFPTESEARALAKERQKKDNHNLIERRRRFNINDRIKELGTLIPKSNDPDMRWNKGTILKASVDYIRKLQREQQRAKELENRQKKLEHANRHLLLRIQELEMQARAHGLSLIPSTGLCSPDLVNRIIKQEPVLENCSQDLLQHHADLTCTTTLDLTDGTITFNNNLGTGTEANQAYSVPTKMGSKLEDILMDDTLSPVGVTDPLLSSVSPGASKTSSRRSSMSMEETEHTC

[6] = HIV-1 Vif–A3G interaction blockers – biochemical, TR-FRET, GST-Vif 1-94, biotin-A3G peptide, dose response retest, primary screen (AID 1117319); assay type: functional;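 further: TR-FRET signal of purified GST-Vif binding a biotinylated A3G peptide; inhibitors lower the FRET signal by blocking Vif and A3G binding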
[7] = target: Glutathione-S-transferase (Schistosoma japonicum, UniProt Q26513); test: GST-antibody interaction or FRET quenching – biochemical, TR-FRET, artefact control for Vif-APOBEC3G degradation inhibitor project, dose response (AID 1117362); assay type: functional
[8] = IC50 of Artemis nuclease activity blockers – biochemical, fluorescence intensity, dose response (AID 720701); assay type: functional;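 further: Artemis endonuclease enzyme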
[9] = target: T4, Tyrosyl-DNA phosphodiesterase 2 (Homo sapiens, UniProt O95551); test: potency against TDP2 phosphodiesterase activity – biochemical, epi absorbance, IC50, dose response (AID 743297)
T4 sequence (O95551 whole entry): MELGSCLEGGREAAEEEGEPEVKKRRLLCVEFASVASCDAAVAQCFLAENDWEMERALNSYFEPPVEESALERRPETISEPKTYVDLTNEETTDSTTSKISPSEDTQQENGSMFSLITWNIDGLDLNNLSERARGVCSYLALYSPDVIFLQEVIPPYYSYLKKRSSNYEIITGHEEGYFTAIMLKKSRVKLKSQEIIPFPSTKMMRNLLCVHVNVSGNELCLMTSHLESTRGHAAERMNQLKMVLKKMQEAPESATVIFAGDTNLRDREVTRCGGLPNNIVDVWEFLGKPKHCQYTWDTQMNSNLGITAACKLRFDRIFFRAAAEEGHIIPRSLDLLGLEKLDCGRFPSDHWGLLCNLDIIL

Caspase-9 = Caspase-9 (Homo sapiens, UniProt P55211); test: inhibitors of purified CASP9 protease – biochemical, fluorescence, plate reader, cherry-picked samples, selectivity assay for caspase-6 inhibitor project, dose response (AID 743293)
Caspase-6 = target: T5, Caspase-6 (Homo sapiens, UniProt P55212); test: inhibition of CASP6 peptide cleavage – biochemical, VEID-R110 fluorescence, cherry-pick, dose response (AID 720632)
T5 sequence (P55212 whole entry): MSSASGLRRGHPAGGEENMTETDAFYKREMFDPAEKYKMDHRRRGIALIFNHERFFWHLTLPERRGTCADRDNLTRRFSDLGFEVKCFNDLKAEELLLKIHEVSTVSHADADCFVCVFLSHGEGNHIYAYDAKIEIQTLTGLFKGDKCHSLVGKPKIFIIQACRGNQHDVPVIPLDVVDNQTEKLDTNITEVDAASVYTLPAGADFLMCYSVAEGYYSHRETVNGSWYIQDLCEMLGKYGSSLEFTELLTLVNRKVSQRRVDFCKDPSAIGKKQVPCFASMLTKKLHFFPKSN

Caspase-7 = target: T6, Caspase-7 (Homo sapiens, UniProt P55210); test: caspase-7 enzyme inhibition, selectivity check – biochemical, DEVD-R110 fluorescence, cherry-pick, selectivity assay for caspase-6 inhibitor project, dose response (AID 743295); assay type: functional
T6 sequence (P55210 whole entry): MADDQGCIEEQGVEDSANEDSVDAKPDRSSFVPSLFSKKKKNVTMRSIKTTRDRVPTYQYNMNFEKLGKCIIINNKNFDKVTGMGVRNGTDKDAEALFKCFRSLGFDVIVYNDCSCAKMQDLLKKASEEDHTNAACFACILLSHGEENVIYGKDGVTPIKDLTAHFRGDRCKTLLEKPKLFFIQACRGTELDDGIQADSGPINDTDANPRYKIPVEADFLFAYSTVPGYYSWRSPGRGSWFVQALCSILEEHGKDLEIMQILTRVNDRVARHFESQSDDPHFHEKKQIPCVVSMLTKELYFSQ

Caspase-8 = Caspase-8 (Homo sapiens, UniProt Q14790); test: inhibitors of purified CASP8 protease – biochemical, Z-IETD-R110 fluorescence, cherry-picked samples, selectivity assay for caspase-6 inhibitor project, dose response (AID 743294)
[10] = rise of 2N DNA cells, HeLa – IC50, dose response (AID 1117349); assay type: functional, cell-based
[11] = rise of 4N DNA cells, HeLa – IC50, dose response (AID 1117351); assay type: functional, cell-based
[12] = Dd2 parasite growth inhibition in erythrocytes – SYBR Green, dry powder samples, set 9, dose response (AID 1159568); assay type: functional, cell-based
[13] = toxicity to human HepG2 hepatoma cells – cell-based, plate reader, dry powder samples, cytotoxicity control, dose response (AID 1159569); assay type: functional;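 further: inhibitor potency with signal falling toward the positive control level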
[14] = toxicity to human hepatoma HepG2 cells – cell-based, cherry-picked samples, cytotoxicity control, dose response (AID 1159577); assay type: functional
[15] = P. falciparum Dd2 growth inhibitors, dose response, SYBR Green, cherry-picked samples (AID 1159567); assay type: functional, cell-based
[16] = growth inhibition of PfATP4-mutant resistant parasites – NITD609-resistant line, SYBR Green, dry powder, dose response (AID 1159571); assay type: functional, cell-based;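 further: parasites synchronized at ring stage by sorbitol before testing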
[17] = Dd2 malaria parasite growth inhibition potency – SYBR Green, dry powder samples, dose response (AID 1159566); assay type: functional, cell-based;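 further: potency for growth inhibition with lower SYBR green DNA signal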
[18] = growth inhibition of yeast DHODH-expressing 3D7 parasites – SYBR Green, dry powder samples, dose response (AID 1159570); assay type: functional, cell-based;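 further: parasite growth measured after 72 hours of compound exposure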

Nonstructural protein 1, sequence (Q194T2 whole entry): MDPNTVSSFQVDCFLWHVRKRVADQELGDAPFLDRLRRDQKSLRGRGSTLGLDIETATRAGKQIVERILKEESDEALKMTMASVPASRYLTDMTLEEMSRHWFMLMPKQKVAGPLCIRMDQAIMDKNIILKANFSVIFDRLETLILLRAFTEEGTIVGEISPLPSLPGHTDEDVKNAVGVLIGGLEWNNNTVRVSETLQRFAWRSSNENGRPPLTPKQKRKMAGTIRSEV
Glutathione-S-transferase, sequence (Q26513 whole entry): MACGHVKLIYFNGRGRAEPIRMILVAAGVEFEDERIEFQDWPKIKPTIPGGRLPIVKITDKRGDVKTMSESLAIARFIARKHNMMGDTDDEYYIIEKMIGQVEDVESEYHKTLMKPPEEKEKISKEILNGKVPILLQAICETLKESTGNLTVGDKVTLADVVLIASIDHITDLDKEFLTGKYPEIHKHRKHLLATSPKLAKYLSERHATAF
Caspase-8, sequence (Q14790 217-374 limits assumed): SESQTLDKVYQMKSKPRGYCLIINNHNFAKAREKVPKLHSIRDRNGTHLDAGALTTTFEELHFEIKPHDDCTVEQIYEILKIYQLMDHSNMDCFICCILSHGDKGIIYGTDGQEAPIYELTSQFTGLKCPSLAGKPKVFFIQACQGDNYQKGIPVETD
Caspase-8, sequence (Q14790 385-479 limits assumed): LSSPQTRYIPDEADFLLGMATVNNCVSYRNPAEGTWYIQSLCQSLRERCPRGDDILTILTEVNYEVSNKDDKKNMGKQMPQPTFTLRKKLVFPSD
Caspase-9, sequence (P55211 1-315 limits assumed): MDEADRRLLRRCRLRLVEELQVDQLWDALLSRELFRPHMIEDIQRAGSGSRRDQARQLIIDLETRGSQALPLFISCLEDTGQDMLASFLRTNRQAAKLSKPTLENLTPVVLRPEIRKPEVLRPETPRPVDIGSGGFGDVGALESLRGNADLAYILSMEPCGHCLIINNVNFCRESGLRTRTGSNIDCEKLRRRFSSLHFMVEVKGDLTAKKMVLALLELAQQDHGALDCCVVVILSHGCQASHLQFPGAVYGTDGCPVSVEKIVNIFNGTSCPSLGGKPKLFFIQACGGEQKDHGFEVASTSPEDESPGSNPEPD
Caspase-9, sequence (P55211 331-416 limits assumed): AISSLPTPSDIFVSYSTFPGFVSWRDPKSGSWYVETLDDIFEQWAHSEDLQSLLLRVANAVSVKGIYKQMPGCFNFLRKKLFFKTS

O=C1C(NS(=O)(=O)c2ccc(Br)cc2)=C(N2CCCCC2)C(=O)c2ccccc21
AC50 [1]: 6.22 µM (active) | IC50 (Nonstructural protein 1): 14.5 µM (active) | AC50 [2]: > 70 µM (inactive) | AC50 [3]: > 70 µM (inactive)

CN1CCN(C2=C(NS(=O)(=O)c3ccccc3)C(=O)c3ccccc3C2=O)CC1
IC50 [4]: 39.1 µM (active) | AC50 [5]: 6.9 µM (active) | AC50 [2]: 28.1 µM (active) | AC50 [3]: 44.6 µM (active)

Cn1c(C(=O)NCCN2CCOCC2)cc2c(=O)n(C)c3ccccc3c21
IC50 [6]: > 100 µM (active) | IC50 [7]: > 100 µM (active)

O=C1c2ccccc2C(=O)N1OCc1cccc(Cl)c1
IC50 [8]: 2.09 µM (active)

O=C1NC(=O)C(=Cc2ccccc2[N+](=O)[O-])S1
IC50 [9]: 13.6 µM (inactive) | AC50 (Caspase-9): 16.1 µM (active) | AC50 (Caspase-6): 3.66 µM (active) | AC50 (Caspase-7): 9.01 µM (active) | AC50 (Caspase-8): 21 µM (active)

CC(C)OC(=O)OCOP(=O)(CO[C@H](C)Cn1cnc2c(N)ncnc21)OCOC(=O)OC(C)C
IC50 [10]: > 10 µM (inactive) | IC50 [11]: > 10 µM (inactive)

O=C(Nc1ccc(F)cc1)N1C[C@@H]2[C@H](c3ccccc31)[C@@H](CO)N2Cc1ccccc1Cl
AC50 [12]: 12.3 µM (active)

COc1ccccc1C#Cc1ccc([C@@H]2[C@@H](CO)N3CCCCN(CCC(F)(F)F)C[C@H]23)cc1
AC50 [13]: 9.58 µM (active) | AC50 [14]: 36.5 µM (active) | AC50 [15]: 1.13 µM (active) | AC50 [16]: 0.221 µM (active) | AC50 [17]: 0.254 µM (active) | AC50 [18]: 0.418 µM (active)

CCCNC(=O)N1[C@H](CO)[C@H](c2ccc(C#Cc3cccc(F)c3)cc2)[C@@H]1C#N
AC50 [12]: 8.55 µM (active)
